ChEMBL document CHEMBL1156946, “Synthesis and SAR of derivatives based on 2-biarylethylimidazole as bombesin receptor subtype-3 (BRS-3) agonists for the treatment of obesity” (Bioorg Med Chem Lett, 2010)

How the values were obtained:
[1] = Ratio of drug level in rat brain to plasma at 1 mg/kg, iv after 1 hr; type: ADME, organism-based; parameters: dose 1 mg/kg, route intravenous
[2] = molecular target: T1, Bombesin receptor subtype-3 (Mus musculus, UniProt O54798); test: Agonist activity at mouse BRS-3 expressed in HEK293 cells coexpressing AEQ over 10 mins by aequorin bioluminescence assay; type: functional, cell-based
T1 sequence (O54798 whole entry): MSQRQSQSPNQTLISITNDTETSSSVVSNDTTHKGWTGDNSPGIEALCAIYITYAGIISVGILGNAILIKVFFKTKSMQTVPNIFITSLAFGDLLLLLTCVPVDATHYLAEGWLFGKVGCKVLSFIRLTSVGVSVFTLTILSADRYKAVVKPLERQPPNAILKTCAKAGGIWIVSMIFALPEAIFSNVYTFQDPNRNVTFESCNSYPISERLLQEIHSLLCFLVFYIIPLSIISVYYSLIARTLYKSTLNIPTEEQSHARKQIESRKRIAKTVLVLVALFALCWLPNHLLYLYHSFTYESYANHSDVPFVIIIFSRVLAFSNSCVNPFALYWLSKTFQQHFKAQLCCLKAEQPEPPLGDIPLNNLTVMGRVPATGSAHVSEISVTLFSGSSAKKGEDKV

[3] = Drug level in rat plasma at 1 mg/kg, iv after 1 hr; type: ADME, organism-based; parameters: dose 1 mg/kg, route intravenous
[4] = molecular target: T2, Bombesin receptor subtype-3 (Homo sapiens, UniProt P32247); test: Agonist activity at human BRS-3 expressed in HEK293 cells coexpressing AEQ over 10 mins by aequorin bioluminescence assay; type: functional, cell-based
T2 sequence (P32247 whole entry): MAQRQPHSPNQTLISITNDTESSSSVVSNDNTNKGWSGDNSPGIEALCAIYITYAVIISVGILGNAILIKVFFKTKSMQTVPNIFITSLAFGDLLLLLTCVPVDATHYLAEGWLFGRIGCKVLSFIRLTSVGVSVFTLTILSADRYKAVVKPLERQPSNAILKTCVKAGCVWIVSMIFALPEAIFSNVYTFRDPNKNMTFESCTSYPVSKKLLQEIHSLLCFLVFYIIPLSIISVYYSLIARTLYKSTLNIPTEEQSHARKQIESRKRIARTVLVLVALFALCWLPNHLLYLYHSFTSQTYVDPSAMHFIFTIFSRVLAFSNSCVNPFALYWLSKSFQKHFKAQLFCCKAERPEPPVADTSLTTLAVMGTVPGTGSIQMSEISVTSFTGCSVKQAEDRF

[5] = molecular target: T2, Bombesin receptor subtype-3; test: biochemical; type: cell-based, CHO
Description: Displacement of [125I]D-Tyr6-betaAla11-Phe13-Nle14-bombesin from human BRS-3 expressed in NFAT-CHO cells after 2 hrs by scintillation counting

[6] = molecular target: T2, Bombesin receptor subtype-3; test: Agonist activity at human BRS-3 expressed in HEK293 cells coexpressing AEQ over 10 mins by aequorin bioluminescence assay relative to D-Tyr6-betaAla11-Phe13-Nle14-bombesin; type: functional, cell-based
[7] = Drug level in rat brain at 1 mg/kg, iv after 1 hr; type: ADME, organism-based; parameters: dose 1 mg/kg, route intravenous; conditions: read-out: Drug uptake
[8] = molecular target: T1, Bombesin receptor subtype-3; test: Agonist activity at mouse BRS-3 expressed in HEK293 cells coexpressing AEQ over 10 mins by aequorin bioluminescence assay relative to D-Tyr6-betaAla11-Phe13-Nle14-bombesin; type: functional, cell-based

| Structure (SMILES) | Kp at 1 h [1] | EC50 [2] [nM] | concentration at 1 h [3] [nM] | EC50 [4] [nM] | IC50 [5] [nM] | Emax [6] [%] | concentration at 1 h [7] [nM] | Emax [8] [%] |
| --- | --- | --- | --- | --- | --- | --- | --- | --- |
| CCC(C)(C)Cc1cnc(CCc2ccc(-c3cnsc3)cc2)[nH]1 | 0.42 | 6.9 | 540 | 44 | 10 | 100 | 230 | 119 |
| CCC(C)(C)Cc1cnc(CCc2ccc(-c3csnn3)cc2)[nH]1 | – | 11 | – | 538 | 45 | 104 | – | 109 |
| CCC(C)(C)Cc1c[nH]c(CCc2ccc(-c3cnccn3)cc2)n1 | – | 11 | – | 431 | 51 | 100 | – | 107 |
| CCC(C)(C)Cc1c[nH]c(CCc2ccc(-n3cccn3)cc2)n1 | 0.67 | 9 | 30 | 135 | – | 106 | 20 | 113 |
| CCC(C)(C)Cc1cnc(CCc2ccc(-n3cncn3)cc2)[nH]1 | 0.4 | 12 | 200 | 570 | 340 | 89 | 80 | 121 |
| CCC(C)(C)Cc1cnc(CCc2ccc(-n3ccnn3)cc2)[nH]1 | – | 57 | – | 641 | 390 | 93 | – | 111 |
| CCC(C)(C)Cc1c[nH]c(CCc2ccc(-c3ccccc3C(=O)O)cc2)n1 | – | – | – | – | 11 | 101 | – | 94 |
| CCC(C)(C)Cc1cnc(CCc2ccc(-c3cccnc3C(=O)O)cc2)[nH]1 | – | 14 | – | 1260 | 560 | 95 | – | 97 |
| CCC(C)(C)Cc1c[nH]c(CCc2ccc(-c3cccc(C(=O)O)n3)cc2)n1 | – | 305 | – | 5230 | 2820 | 15 | – | 90 |
| c1ccc(-c2ccc(CCc3nc(CC4CCCC4)c[nH]3)cc2)nc1 | 0.77 | 22 | 39 | 425 | 177 | 98 | 30 | 103 |
| CCC(C)(C)Cc1cnc(CCc2ccc(-c3cccnc3)cc2)[nH]1 | – | 4.3 | – | 131 | 7.5 | 98 | – | 97 |
| CCC(C)(C)Cc1c[nH]c(CCc2ccc(-n3ncnn3)cc2)n1 | – | 25 | – | 422 | 205 | 89 | – | 99 |
| CCC(C)(C)Cc1cnc(CCc2ccc(N3CCCCC3)cc2)[nH]1 | – | 28 | – | 171 | 28 | 108 | – | 133 |
| CCC(C)(C)Cc1cnc(CCc2ccc(-c3ccncc3)cc2)[nH]1 | – | 15 | – | 305 | 101 | 95 | – | 103 |
| CCC(C)(C)Cc1c[nH]c(CCc2ccc(-c3cccc(C)n3)cc2)n1 | – | 19 | – | 105 | – | 102 | – | 106 |
| CCC(C)(C)Cc1c[nH]c(CCc2ccc(-c3cccc(N)n3)cc2)n1 | – | 3.9 | – | 37 | 7.3 | 97 | – | 119 |
| O=C(O)c1cc(F)c(F)cc1-c1ccc(CCc2nc(CC3CCCCC3)c[nH]2)cc1 | – | 4.7 | – | 63 | 36 | 103 | – | 96 |
| CCC(C)(C)Cc1c[nH]c(CCc2ccc(-c3cccc(O)n3)cc2)n1 | – | 11 | – | 169 | 51 | 100 | – | 91 |
| CCC(C)(C)Cc1cnc(CCc2ccc(-c3cccc(C#N)n3)cc2)[nH]1 | – | 26 | – | 193 | 140 | 95 | – | 115 |
| CCC(C)(C)Cc1cnc(CCc2ccc(-c3ccc(F)cn3)cc2)[nH]1 | – | 16 | – | 66 | 19 | 97 | – | 105 |
| CCC(C)(C)Cc1c[nH]c(CCc2ccc(-c3ccns3)cc2)n1 | – | 3.1 | – | 63 | 11 | 102 | – | 103 |
